From US20040058983A1, “Plan-derived and synthetic phenolic compounds and plant extracts, effective in the treatment and prevention of chlamydial infections” (priority 2000, published 2004)
Where two headings read alike, the source gives them in different places.

Experiments:
C. pneumoniae = experiment: Direct anti-chlamydial effect of compounds and mixtures on C. pneumoniae (Example 5); type: cell-based; details: for inhibition at 50 µM: Chlamydia pneumoniae
Method: Direct Anti-Chlamydial Effect of Plant-Derived Phenolic Compounds, Certain Synthetic Compounds and Mixtures on C. pneumoniae
The concentration used was 50 μM.
The cultivated HL cells are infected with C. pneumoniae EB's. The EB's which have invaded the cell are changed into the metabolically active reticulate body (RB) which are dividing by binary fission in the endosome vacuole or inclusion.
After a certain time (about 72 hr) the C. pneumoniae RB's are condensing back into EB's, after which the inclusions are broken, the host cells are broken and the EB's are liberated. In this method the intention is to verify the inclusions before the breaking up of the host cells.
On the day preceding the infection the host cells are inoculated on a 24-well plate: the cells are harvested by trypsinisation, they are suspended in ca. 5 ml of the nutrition liquid and counted in a Burker's chamber. Each well are seeded using a concentration of 250000-400000 cells/well for cultivation. Before the addition of the cells to the well is if necessary round cover glass (diameter 13 mm) put for staining. Nutrition liquid is added so that the volume is 1 ml/well. On the following day the cells are infected with the desired bacterium.
Solution to be used in the infection and containing chlamydiae particles is mixed throughout. The old nutrition liquid is aspirated away. By the infection the inoculum which has been stored at −70° C. is diluted to an IFU concentration of ca. 10^3 so that the volume of the solution is at least 200 μl/well on a 24-well plate. The cells are infected by centrifuging at 1600 rpm (550×g)/1 hr. The nutrition medium is aspirated away and changed to a maintenance medium containing cyclohexamide and also containing the studied compound (DMSO concentration 0.2%), 1 ml/well. The cells are incubated in a 5% CO2 atmosphere at +35° C. The cells infected with C. pneumoniae are incubated for 3 days. After 2-3 days the maintenance medium is removed and the cells washed with 1×1 ml of PBS. To the wells 200 μl of SPG are added for further infection, harvested with a pipette tip and transferred into tubes. This is used for infecting new cells in the same way as above to test the inhibition of infectivity (chlamydiasidic effect).
The nutrition medium, which is above the cover glass left for staining, is aspirated away. The infected cells are fixed on the cover glass with methanol for 10 min. The cover glass is removed from the well and -transferred onto a suitable fluorescein-conjugated monoclonal antibody on Parafilm in a moist chamber with the cell-containing side down. The cover glass is incubated for 30 min at +37° C. and washed twice with PBS and once with water. Finally it is dried. The cover glass is put with the cell-containing side down on an object glass containing a fixative (e.g. Mounting medium). When viewed under the fluorescent microscope, cell culture specimens infacted with chlamydiae show a characteristic apple-green fluorescence of inclusions against a red counterstained background.

Ca^2+ intake in the cell = experiment: Effect of the compounds on the calcium influx (Ca2+ intake) to the cell; type: cell-based; details: compound 20 μg/ml; − = decrease, + = increase
From the text: In the following Table I some of the preferred plant-derived phenolic compounds according to the present invention, the effect of the compounds on the calcium influx to the cell, the antioxidant effect as well as the chemical structure of the compounds are presented.

Molecule	Inhibition % (C. pneumoniae; 50 μM) [%]	inhibition at 50 µM (C. pneumoniae; 50 μM, read-out: Inhibition %) [%]	also measured
COc1ccccc1-c1cc(=O)c2ccc3ccccc3c2o1 [2′-methoxy-α-naphtoflavone]	100		
O=c1oc2cc(O)ccc2cc1-c1nc2ccccc2o1 [3-(2-benzoxazoyl)umbelliferone]	28		
CC(=O)CC(c1ccccc1)c1c(O)c2ccccc2oc1=O (stereo not drawn) [3-(α-acetonylbenzyl)-4-hydroxycoumarin]		0	
O=C(c1ccccc1)c1cc2c(ccc3ccccc32)oc1=O [3-benzoylbenzo(F)coumarin]	62		
Cc1c(-c2ccccc2)c(=O)oc2ccccc12 [4-methyl-3-phenylcoumarin]		0	
COc1ccc2oc(-c3ccccc3OC)cc(=O)c2c1 [6,2′-dimethoxyflavone]		73	
O=C(O)c1cc2cc(Br)cc(Br)c2oc1=O [6,8-dibromocoumarin-3-carboxylic acid]		0	
Cc1ccc2oc(=O)ccc2c1 [6-methylcoumarin]		71	
CCN(CC)c1ccc2cc(C(=O)c3cccs3)c(=O)oc2c1 [7-diethylamino-3-thenoylcoumarin]	100		
Oc1cc(O)c2c(c1)O[C@H](c1ccc(O)c(O)c1)[C@@H](O)C2 [(+)-Catechin]	76		
O=C(O[C@@H]1Cc2c(O)cc(O)cc2O[C@@H]1c1ccc(O)c(O)c1)c1cc(O)c(O)c(O)c1 [(−)-Epicatechin gallate]	85		
Oc1cc(O)c2c(c1)O[C@H](c1ccc(O)c(O)c1)[C@H](O)C2 [(−)-Epicatechin]	75		
Oc1cc(O)c2c(c1)O[C@H](c1cc(O)c(O)c(O)c1)[C@H](O)C2 [(−)-Epigallocatechin]	58		
O=c1cc(-c2ccccc2)oc2c1ccc1ccccc12 [Alpha-naphtoflavone]	92		
CCN(CC)c1ccc2cc(-c3nc4ccccc4n3C)c(=O)oc2c1 [Coumarin 30]	50		
Cc1cc(=O)oc2c3c4c(cc12)CCCN4CCC3 [Coumarin 102]	63		
O=c1oc2c3c4c(cc2c2c1CCC2)CCCN4CCC3 [Coumarin 106]	100		
O=c1ccc2ccccc2o1 [Coumarin]		28	
O=c1c(-c2ccc(O)cc2)coc2cc(O[C@@H]3O[C@H](CO)[C@@H](O)[C@H](O)[C@H]3O)ccc12 [Daidzin]	0		Effect on Ca^2+ intake [%] (Ca^2+ intake in the cell): +7.6%
O=c1c(-c2ccc(O)cc2)coc2cc(O[C@@H]3O[C@H](CO)[C@@H](O)[C@H](O)[C@H]3O)cc(O)c12 [Genistin]		37	inhibition at 20 µg/mL (Ca^2+ intake in the cell): 3.39%
O=c1cc(-c2ccc(O)c(O[C@@H]3O[C@H](CO)[C@@H](O)[C@H](O)[C@H]3O)c2)oc2cc(O[C@@H]3O[C@H](CO)[C@@H](O)[C@H](O)[C@H]3O)cc(O)c12 [Luteolin-3′,7-glucoside]	45		Effect on Ca^2+ intake [%] (Ca^2+ intake in the cell): −14.6%
C[C@@H]1O[C@@H](O[C@H]2[C@H](Oc3cc(O)c4c(c3)O[C@H](c3ccc(O)cc3)CC4=O)O[C@H](CO)[C@@H](O)[C@@H]2O)[C@H](O)[C@H](O)[C@H]1O [Naringin]	66		Effect on Ca^2+ intake [%] (Ca^2+ intake in the cell): +6.5%
Oc1cc(O)c2c(c1)O[C@H](c1ccc(O)c(O)c1)[C@H](O)[C@H]2c1c(O)cc(O)c2c1O[C@H](c1ccc(O)c(O)c1)[C@@H](O)C2 [Procyanidin B1]	30		
Oc1cc(O)c2c(c1)O[C@H](c1ccc(O)c(O)c1)[C@H](O)[C@H]2c1c(O)cc(O)c2c1O[C@H](c1ccc(O)c(O)c1)[C@H](O)C2 [Procyanidin B2]	0		
Oc1ccc(/C=C/c2cc(O)cc(O)c2)cc1 [Resveratrole]	54		
C=C(C)[C@H]1Cc2c(ccc3c2O[C@@H]2COc4cc(OC)c(OC)cc4[C@@H]2C3=O)O1 [Rotenone]			inhibition at 50 µM (C. pneumoniae): 100%
COc1cc2ccc(=O)oc2cc1O [Scopoletin]		96	
O=c1ccc2ccc(O)cc2o1 [Umbelliferone]		75	
COc1c2occc2cc2ccc(=O)oc12 [Xanthotoxin]	94		
Methoxy psoralen	100		
